{"source": "patent US8470819B2", "about": "“Benzimidazole and aza-benzimidazole carboxamides” (Merck Sharp & Dohme Corp., priority 2008, dated 2013)", "data": [{"target": "T1, full-length human PAFR (Homo sapiens, UniProt P25105)", "T1 construct": "PAFR was derived from membranes from CHO cells over-expressing the full-length human PAFR; expressed in transfected cells; host or cells: CHO cells (membranes)", "T1 sequence (P25105 whole entry)": "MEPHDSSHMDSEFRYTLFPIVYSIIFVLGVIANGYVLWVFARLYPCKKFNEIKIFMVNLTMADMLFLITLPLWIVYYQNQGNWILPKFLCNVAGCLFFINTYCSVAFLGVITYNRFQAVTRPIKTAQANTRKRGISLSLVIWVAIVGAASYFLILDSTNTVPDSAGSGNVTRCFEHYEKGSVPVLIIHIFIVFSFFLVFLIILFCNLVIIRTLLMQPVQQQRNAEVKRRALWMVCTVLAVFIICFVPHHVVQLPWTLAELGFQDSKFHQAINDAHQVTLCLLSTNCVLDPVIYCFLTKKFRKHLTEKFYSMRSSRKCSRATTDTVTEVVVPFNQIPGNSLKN", "assay": "PAF Binding Assay", "conditions": "3H-PAF competition, membranes from CHO cells over-expressing human PAFR, SPA beads", "experimental": "(§1) PAFR was derived from membranes from CHO cells over-expressing the full-length human PAFR. Supernatant from the cell homogenate pellet (3000×g) is pelleted (35000×g), and the resulting pellet is resuspended in a Tris HCl buffer (50 mM Iris HCl pH 7.4, 5 mM MgCl2, 30% glycerol) to afford a parent PAFR stock that is diluted in PAF binding buffer (50 mM HEPES pH 7.0, 10 mM MgCl2, 5 mM CaCl2, 5 mM D-(+)glucose, 0.25% fatty-acid free BSA) to afford a PAFR assay stock (120 μg/mL) prior to each use.\n(§2) Binding buffer (48 μL) and competitor compound (i.e., the compound to be tested) in DMSO (2 μL) were added to a 96-well plate. Cold PAF C-18 (200 nM final concentration) was used to determine non-specific binding. 25000 cpm of ^3H-PAF (25 μL of a stock solution in PAF binding buffer) was added to all wells, and the plates sealed and shaken at rt for 5 min. PAFR assay stock (3 μg/well) was added, and the plate was sealed and shaken at rt for 2 h. SPA beads^1 (10 μL of a 25 mg/mL suspension in binding buffer) were added to all wells, and the plates were sealed and shaken for 30 min. The plates were centrifuged (1900 rpm for 5 min.), allowed to stand for 30 min. and read on a Microbeta TriLux counter.\n(§3) Specific binding is defined as total binding minus non-specific binding. Total binding was the amount of ^3H-PAF bound to SPA beads in the absence of competitor; non-specific binding was ^3H-PAF bound in the presence of 30 μM Compound A.^2 The IC50 values were obtained by computer analysis of the experimental data.^3 Percent inhibition was calculated as 100−[(Sample-Non-specific bound)/(Total bound Non-specific bound)×100]", "units": {"IC50": "nM"}, "values": [{"smiles": "CC(C)n1c(-c2ccc(OC(F)(F)F)cc2)nc2cc(C(=O)N3CCC(O)(c4cccnc4)C3)ccc21", "note": "(stereo not drawn) [Example 1Qa, 1-({1-isopropyl-2-[4-(trifluoromethoxy)phenyl]-1H-benzimidazol-5-yl}carbonyl)-3-pyridin-3-ylpyrrolidin-3-ol]", "IC50": 9}, {"smiles": "CC1(n2c(-c3ccc(OC(F)(F)F)cc3)nc3cc(C(=O)N4CCC(c5cccnc5)C4)ccc32)CC1", "note": "(stereo not drawn) [Example 1Gr, 1-(1-methylcyclopropyl)-5-[(3-pyridin-3-ylpyrrolidin-1-yl)carbonyl]-2-[4-(trifluoromethoxy)phenyl]-1H-benzimidazole]", "IC50": 10}, {"smiles": "CC(C)c1nc2cc(C(=O)N3CCC(c4cccnc4)C3)ccc2n1-c1ccc(OC(F)(F)F)cc1", "note": "(single isomer, unassigned) [Example 1c, 2-isopropyl-5-[(3-pyridin-3-ylpyrrolidin-1-yl)carbonyl]-1-[4-(trifluoromethoxy)phenyl]-1H-benzimidazole]", "IC50": 11}, {"smiles": "CC(C)n1c(-c2ccc(OC(F)(F)F)cc2)nc2cc(C(=O)N3CCC(c4cccnc4)C3)ccc21", "note": "(single isomer, unassigned) [Example 1Ar, 1-isopropyl-5-[(3-pyridin-3-ylpyrrolidin-1-yl)carbonyl]-2-[4-(trifluoromethoxy)phenyl]-1H-benzimidazole]", "IC50": 2}, {"smiles": "O=C(c1ccc2c(c1)nc(-c1ccc(OC(F)(F)F)cc1)n2C1CCC1)N1CCC(c2cccnc2)C1", "note": "(stereo not drawn) [Example 1Fr, 1-cyclobutyl-5-[(3-pyridin-3-ylpyrrolidin-1-yl)carbonyl]-2-[4-(trifluoromethoxy)phenyl]-1H-benzimidazole]", "IC50": 9}]}, {"target": "T1, full-length human PAFR", "assay": "PAF Binding Assay", "conditions": "comparison of the resolved enantiomers, in words", "experimental": "as §1, §2, §3", "values": [{"smiles": "CC(C)n1c(-c2ccc(OC(F)(F)F)cc2)nc2cc(C(=O)N3CCC(c4cccnc4)C3)ccc21", "note": "(single isomer, unassigned) [Example 1Ar, 1-isopropyl-5-[(3-pyridin-3-ylpyrrolidin-1-yl)carbonyl]-2-[4-(trifluoromethoxy)phenyl]-1H-benzimidazole]", "IC50 results in the PAF Binding Assay, slower vs faster eluting enantiomer": "faster eluting enantiomer was preferred"}]}]}
